This is an account of results in patent US10828301B2, “2,4-pyrimidinediamine compounds and their uses” (Rigel Pharmaceuticals, Inc, priority 2002, dated 2020).

Holding throughout (type): cell-based
One assay has as its system Jurkat cells. Kind of assay: Jurkat (T-cell) toxicity, light scatter. As to conditions: Homo sapiens, 18-24 hr, flow cytometric light scatter, read-out: Toxicity Jurkat Light Scat. Here is the method:
Dilute Jurkat cells to 2×10^5 cells/ml in complete RPMI (10% heat-inactivated fetal bovine serum) media and incubate at 37° C., 5% CO2 for 18 hours. Add 65 ul cells at 7.7×10^5 cells/ml to a 96-well V-bottom plate (TC-treated, Costar) containing 65 ul 2× compound (final vehicle concentration is 0.5% DMSO, 1.5% MeOH). Mix, incubate plates for 18-24 hr at 37° C., 5% CO2. Toxicity was assessed by flow cytometric analysis of cellular light scatter
(In general: In flow cytometry, cells or beads pass a laser one at a time.)

A further assay relates to B-cell line BJAB. Kind of assay: BJAB (B-cell) toxicity, light scatter. The conditions noted are these: Homo sapiens; BJAB B-cells, flow cytometric light scatter; read-out: Toxicity BJAB Light Scat. How it is done:
The B-cell line BJAB was cultured in log phase in RPMI1640+10% heat-inactivated fetal bovine serum, lx L-glutamine, lx penicillin, lx […] and 1× beta-mercaptoethanol at 37° C., 5% CO2. First, BJABs were harvested, spun and resuspended in culture medium to a concentration of 7.7×10^5 cells/mL. 65 uL cells were mixed with 65 uL compound, in duplicate and in the presence of 0.1% DMSO in a V-bottomed 96-well tissue culture plate. Cells were incubated with compound at various dilutions at 37° C., 5% CO2. Toxicity was assessed by flow cytometric analysis of cellular light scatter.

The subject of assay [1] is cultured human mast cells (CHMC). The experiment in a line: CHMC low cell density IgE activation: tryptase and LTC4 assays. The conditions noted are these: Homo sapiens, Mast cell, Low Density CHMC, anti-IgE activation. Put shortly:
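Degranulation measured after 30 min anti-IgE challenge at 37° C of CHMC plated at 1000-1500 cells/well following 1 h preincubation. Readouts: LTC4 by ELISA on donor-specific diluted supernatants, and tryptase activity from a 30 min room-temperature substrate reaction.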

The test system is the same in assay [2]. Kind of assay: CHMC low cell density ionomycin activation: tryptase assay. As to conditions: Homo sapiens, Mast cell, Low Density CHMC, ionomycin activation.
Assay [3] relates to ionophore-induced degranulation of mast and/or basophil cells. The experiment in a line: Ionophore (ionomycin or A23187)-induced degranulation counter screen. As to conditions: Mus musculus; high density BMMC, ionomycin activation, hexosaminidase release; read-out: BMMC Ionomycin Hexos. IC50. The source says:
In addition to the FcεRI or FcγRI degranulation pathways discussed above, degranulation of mast and/or basophil cells can be induced by other agents. For example, ionomycin, a calcium ionophore that bypasses the early FcεRI or FcγRI signal transduction machinery of the cell, directly induces a calcium flux that triggers degranulation. Referring again to FIG. 2, activated PLCγ initiates pathways that lead to, among other things, calcium ion mobilization and subsequent degranulation. As illustrated, this Ca^2+ mobilization is triggered late in the FcεRI signal transduction pathway. […] Other ionophores that induce degranulation in this manner include A23187. The ability of granulation-inducing ionophores such as ionomycin to bypass the early stages of the FcεRI and/or FcγRI signaling cascades may be used as a counter screen to identify active compounds of the invention that specifically exert their degranulation-inhibitory activity by blocking or inhibiting the early FcεRI or FcγRI signaling cascades, as discussed above.
Assays suitable for determining the IC50 of ionophore-induced degranulation include any of the previously-described degranulation assays, with the modification that the cells are stimulated or activated with a degranulation-inducing calcium ionophore such as ionomycin or A23187 (A.G. Scientific, San Diego, Calif.) instead of anti-IgE antibodies or an IgE-specific allergen. Specific assays for assessing the ability of a particular 2,4-pyrimidinediamine compound of the invention to inhibit ionophore-induced degranulation are provided in the Examples section.

For assay [4], the system named is basophils in whole human peripheral blood. Kind of assay: Basophil IgE activation: histamine release assay. As to conditions: Homo sapiens, anti-IgE activation. How it is done:
The basophil activation assay was carried out using whole human peripheral blood from donors allergic to dust mites with the majority of the red blood cells removed by dextran sedimentation. Human peripheral blood was mixed 1:1 with 3% dextran T500 and RBCs were allowed to settle for 20-25 min. The upper fraction was diluted with 3 volumes of D-PBS and cells were spun down for 10 min at 1500 rpm, RT. Supernatant was aspirated and cells were washed in an equal volume MT-buffer. Finally, cells were resuspended in MT-buffer containing 0.5% DMSO in the original blood volume. 80 uL cells were mixed with 20 uL compound in the presence of 0.5% DMSO, in triplicate, in a V-bottom 96-well tissue culture plate. A dose range of 8 compound concentrations was tested resulting in a 10-point dose response curve including maximum (stimulated) and minimum (unstimulated) response. […] The cells were stimulated for 30 minutes at 37° C., 5% CO2. The plate was spun for 10 min at 1500 rpm at room temperature and 80 uL the supernatant was harvested for histamine content analysis using the histamine ELISA kit supplied by Immunotech. The ELISA was performed according to supplier's instructions.

For assay [5] the test system is unchanged. Kind of assay: Basophil ionomycin activation: histamine release assay. The conditions noted are these: Homo sapiens. Here is the method:
Assays for ionomycin-induced basophil cell degranulation were carried out as described for the Basophil IgE or Dustmite Activation Assay (Section 6.4.6, supra), with the exception that following incubation with compound, cells were stimulated with 20 μl of 2 μM ionomycin.

In assay [6] the test system is bone marrow derived mast cells (BMMC). The experiment in a line: BMMC high cell density IgE activation: degranulation (hexosiminidase, histamine), leukotriene (LTC4) and cytokine (TNFalpha, IL-6) assays. The conditions noted are these: Mus musculus, anti-IgE activation, hexosaminidase release, read-out: BMMC anti-IgE hexos IC50. How it is done:
After sensitizing, cells are counted, pelleted (1000 rpm, 5-10 minutes), and resuspended at 1-3×10^6 cells/ml in MT buffer. Add 100 ul of cell suspension to each well and 100 ul of compound dilutions. The final vehicle concentration is 0.5% DMSO. Incubate at 37° C. (5% CO2) for 1 hour. After 1 hour of compound treatment, stimulate cells with 6× stimulus (60 ng/ml DNP-BSA). Mix wells with the cells and allow plates to incubate at 37° C. (5% CO2) for one hour. After 1 hour incubation, pellet cells (10 minutes, 1000 RPM) and collect 200 ul per well of the supernatant, being careful not to disturb pellet, and transfer to a clean tube or 96-well plate. Place the supernatant plate on ice. During the 4-5 hour step (see next) perform the hexosiminidase assay. Resuspend cell pellet in 240 ul WEI-conditioned media containing 0.5% DMSO and corresponding concentration of compound. Incubate BMMC cells for 4-5 hours at 37° C. (5% CO2). After incubation, pellet cells (1000 RPM, 10 minutes) and collect 225 ul per well and place in −80° C. until ready to perform ELISAS. ELISAS are performed on appropriately diluted samples (determined empirically for each donor cell population so that the sample measurement falls within the standard curve) following the supplier's instructions.
Add 50 uL of BMMC cell supernatant (see above) to the hexoseaminidase substrate, place at 37° C. for 30 minutes and read the plate at 5, 10, 15, and 30 minutes on a spectrophotometer.

[7] abbreviates: LTC4 readout, read-out: CHMC anti-IgE LTC4.
[8] abbreviates: tryptase readout, read-out: CHMC anti-IgE Tryptase.
Where [9] appears, read: tryptase readout, read-out: CHMC Ionomycin Tryptase.
Setting [10] is: hexosaminidase readout, read-out: CHMC anti-IgE Hexos.
The mark [11] stands for this setting: hexosaminidase readout, read-out: CHMC Ionomycin Hexos.

As to `Oc1cccc(Nc2ncc(Br)c(Nc3cccc(O)c3)n2)c1` [Compound R925778, N2,N4-Bis(3-hydroxyphenyl)-5-bromo-2,4-pyrimidinediamine], the IC50 was over 10 µM in the assay with Jurkat cells; over 10 µM in the assay on B-cell line BJAB; 180 nM in assay [1] (setting [7]); 225 nM in assay [1] (setting [8]); over 10 µM in assay [2] (setting [9]).

Turning to `Cc1cccc(Nc2ncc(F)c(Nc3cccc(C)c3)n2)c1` [Compound R092788, N2,N4-bis(3-methylphenyl)-5-fluoro-2,4-pyrimidinediamine], the IC50 in the assay with Jurkat cells and in the assay on B-cell line BJAB was over 10 µM throughout.

Turning to `Oc1cccc(Nc2nc(Nc3ccc4c(c3)OCCO4)ncc2Br)c1` [Compound R925797, 5-Bromo-N2-(3,4-ethylenedioxyphenyl)-N4-(3-hydroxyphenyl)-2,4-pyrimidinediamine], the IC50 in the assay with Jurkat cells is over 10 µM; in the assay with B-cell line BJAB, over 10 µM; in assay [1] (setting [7]), 280 nM; in assay [1] (setting [8]) it was 850 nM; in assay [2] (setting [9]) it was over 10 µM.

For `COc1ccc(Nc2ncc(F)c(Nc3ccc(OC)c(OC)c3)n2)cc1OC` [Compound R926110, N2,N4-Bis(3,4-dimethoxyphenyl)-5-fluoro-2,4-pyrimidinediamine], the IC50 in assay [3] is 4.5 µM; in the assay with Jurkat cells it was over 10 µM; in the assay with B-cell line BJAB it was over 10 µM; in assay [4] it was 300 nM; in assay [1] (setting [7]) it was 1420 nM; in assay [1] (setting [10]) it was 1200 nM. The IC50 in assay [1] (setting [8]) is 1070 nM; in assay [5], over 10 µM; in assay [2] (setting [11]), over 10 µM; in assay [2] (setting [9]) it was over 10 µM; in assay [6] it was 1000 nM.

On to `Oc1cccc(Nc2ncc(F)c(Nc3ccc4c(c3)OCCO4)n2)c1` [Compound R926210, N4-(3,4-Ethylenedioxyphenyl)-5-fluoro-N2-(3-hydroxyphenyl)-2,4-pyrimidinediamine], for which the IC50 in assay [3] is over 10 µM; in the assay on Jurkat cells, over 10 µM; in the assay with B-cell line BJAB, over 10 µM; in assay [4], 370 nM; in assay [1] (setting [7]), 800 nM; in assay [5] it was over 10 µM. The IC50 in assay [6] amounted to 600 nM.

As to `CC(=O)Oc1cccc(Nc2ncc(F)c(Nc3cccc(OC(C)=O)c3)n2)c1` [Compound R926387, N2,N4-Bis(3-acetyloxyphenyl)-5-fluoro-2,4-pyrimidinediamine], the IC50 in the assay on Jurkat cells was over 10 µM; in the assay with B-cell line BJAB, over 10 µM; in assay [1] (setting [7]), 700 nM; in assay [1] (setting [8]) it was 650 nM; in assay [2] (setting [9]), over 10 µM.

On to `Cc1cnc(Nc2cccc(O)c2)nc1Nc1cccc(O)c1` [Compound R926248, N2,N4-Bis(3-hydroxyphenyl)-5-methyl-2,4-pyrimidinediamine], for which the IC50 is over 10 µM in the assay with Jurkat cells; over 10 µM in the assay with B-cell line BJAB; 760 nM in assay [1] (setting [7]); 900 nM in assay [1] (setting [8]); over 10 µM in assay [2] (setting [9]).

As for `COc1ccc(Nc2ncc(F)c(Nc3ccc(OC)cc3)n2)cc1` [Compound R926017, N2,N4-Bis(4-methoxyphenyl)-5-fluoro-2,4-pyrimidinediamine], the IC50 is 9.6 µM in assay [3]; 530 nM in assay [4]; 1430 nM in assay [1] (setting [10]); over 10 µM in assay [5]; over 10 µM in assay [2] (setting [11]); 1400 nM in assay [6].

Take `Oc1cccc(Nc2ccnc(Nc3cccc(O)c3)n2)c1` [Compound R926249, N2,N4-Bis(3-hydroxyphenyl)-2,4-pyrimidinediamine]: the IC50 in the assay with Jurkat cells was over 10 µM; with B-cell line BJAB, over 10 µM; in assay [1] (setting [7]), 250 nM; in assay [1] (setting [8]) it was 500 nM; in assay [2] (setting [9]) it was over 10 µM.

With `CCOc1ccc(Nc2nc(Nc3cccc(O)c3)ncc2F)cc1` [Compound R926146, N4-(4-Ethoxyphenyl)-N2-(3-hydroxyphenyl)-5-fluoro-2,4-pyrimidinediamine], the IC50 in assay [3] is 5 µM; with Jurkat cells, over 10 µM; with B-cell line BJAB, over 10 µM; in assay [1] (setting [7]) it was 1590 nM; in assay [1] (setting [10]), 761 nM; in assay [2] (setting [11]), 6.7 µM. In assay [6], the IC50 is 1350 nM.
